Experimental data: patent publication US4276890A, “Tobacco smoking inhibitor” (priority 1979, dated 1981)
Values joined by “and” are separate entries in the source; they are usually repeats but may differ in a detail not shown here. Equal entries are not always repeated. “Also recorded” adds a separate entry of the source.

What was measured:
[1] = Volatility and storage stability; type: physicochemical
Experimental: The troches were made essentially by conventional candy making techniques. The polysaccharide and starch were first dry blended to substantial uniformity. About 3-4% by weight of water was added to the dry powder to form a thick paste. This paste was then heated to produce a uniform viscous melt. Maltol or ethyl maltol were added to this melt as saturated solutions in boiling water. The water solubility of the gamma pyrones is somewhat limited. For example, one gram of ethyl maltol requires 6 ml of water at 100° C. to dissolve completely. Since the water content of the mixture must be kept low, the amount of ethyl maltol which can be incorporated is about 3-4%, and preferably about 1% by weight of the troche. […] Alternatively, the entire process can be carried out in a suitable pressure apparatus.
A refined, bland chewing gum base, obtained from Adams Sour Apple gum, (Warner-Lambert, Inc., Morris Plains, N.J.) was heated to 45° C. in a 100 gram batch. Ethyl maltol, 300 to 400 mesh, 6.66 grams, was added to the chewing gum base with thorough mixing to provide an even distribution of particles throughout the mass. The mass was then rolled into individual 3 gram sticks and allowed to cool. Alternatively, the mass was rolled as a single thin rectangular slab, allowed to cool, then cut into 3 gram sticks. […] Each 3 gram stick contains 200 mg of ethyl maltol.

[2] = system: cigarette consumption of smokers; assay: Multi-day dose course in individual smokers (Example 4, Table 1): tobacco consumption; type: in vivo, human (volunteer smokers)
Excerpt: (§1) Smoking behavior is complex and includes cigarette, pipe and cigar smoking. Both from the standpoint of habituation and of health hazard, cigarette smoking is considered to be the most serious. It is contemplated that the treatment method described herein will be effective to inhibit all forms of smoking behavior and combinations thereof, involving the consumption of tobacco. For convenience, the ensuing discussion focuses on cigarette smoking, as exemplary of smoking behavior in general. Tobacco consumption is a function the number of cigarettes smoked and the proportion of each cigarette smoked. Reduction of consumption is measured by comparison with a smoker's pretreatment consumption rate. All data used herein are expressed as percent reduction, i.e., the differential between pretreatment and current smoking consumption rate divided by the pretreatment rate, times 100. All rates are calculated to take into account both the number of cigarettes smoked and the proportion of each smoked.
Extensive tests were made of individual smokers of varied age, smoking history, and sex in a course of treatment extending over several days. All smokers tested in this experiment were initially naive as to the purpose of the test or the expected effect. The subjects volunteered for the tests after being told that the material is safe according to FDA food additive standards and that they were to report all observed effects. So far as can be ascertained none of the subjects deduced the true purpose of the test until the effects were made obvious by substantial involuntary reduction in their smoking activities. Subjects were interviewed before the dosage course to insure that they were in general good health. Interviews were also conducted during and after the dosage course, at least every third day to ascertain what physiological or psychological effects were experienced. No side effects were noted during or after the treatment cycle.
Several individuals from the original test series volunteered for additional testing. In all such instances, a treatment free period of three weeks to three months was interposed between tests.
Subjects are identified by number. The original, naive tests are identified by the letter "a" following the subjects' number. Subsequent test series are identified sequentially by "b" and "c", where appropriate.
All subjects except nos. 10 and 11 received ethyl maltol in a chewing gum with instructions to chew for at least 10 minutes, and preferably 15 minutes. Subjects 10 and 11 received ethyl maltol in tablet form, rather than by sustained release in the mouth.

[3] = system: tobacco consumption of habitual smokers; assay: General observations of treatment on tobacco consumption and subjective effects; type: in vivo, human (test subjects
Excerpt: In a preferred embodiment, finely divided ethyl maltol is distributed in a chewing gum base, which when chewed by the subject, results in a gradual release of ethyl maltol into the oral cavity. When administered in appropriate amounts over a period of several days, there results a gradual decrease in the number of cigarettes smoked and the length of time they are smoked. […] Reductions in the frequency and quantity of smoking have been observed in test subjects who were unaware that their smoking behavior was monitored. […] Subjectively, test subjects experience a reduced desired to smoke, tend to neglect the opportunities to light up a cigarette and tend to leave cigarettes unsmoked in the ashtray after a few puffs. The effect is sufficiently subtle that a smoker is sometimes unaware that their tobacco consumption rate was decreased until such point as the lowered consumption rate becomes obvious. For smokers sincerely desiring to reduce or eliminate their smoking, the effect of the treatment is most gratifying. However, for smokers who are not psychologically committed to giving up smoking, the effects may be alarming. It is of course, possible to override the effects of the treatment by conscious effort to smoke at the pre-treatment rate.
as §1
Duration of treatment may be as little as ten days, preferably 20 to 30 days. As might be expected with a complex behavior such as smoking, where psychological and social factors play a major role in addition to individual variations in nicotine susceptibility and responsiveness to gamma pyrone, the rate of smoking reduction during treatment is highly variable. Typically, a gradual reduction to about 50% to the pretreatment rate is observed over the first four to six days. Frequently, little or no reduction is observed for the first two days, although occasionally a dramatic reduction is observed almost immediately. In the ensuing seven to ten days, further reductions, typically 70 to 100%, are observed. Reduction below the 50% level in the first 3-5 days is sometimes accompanied by the physiological (but not psychological) symptoms of nicotine withdrawl, such as vertigo, alimentary distress, diuresis, scotoma and disorientation. Such symptoms have never been observed in non-smoking control subjects using the same gamma pyrone dosages. […] The entire course of treatment is therefore extended somewhat, preferably to about 20 to 30 days total. […]

mice = details: cited from earlier work
[4] = chewing gum, 600 mg/day, 1 day, subject 8b
[5] = chewing gum, 800 mg/day, course: 1a 16 days, 2b 20, 7b 20, 8a 1, 9a 5 days
[6] = chewing gum, 900 mg/day, 12 days, subject 2a
[7] = chewing gum, 1200 mg/day, 8 days, subject 4a
[8] = chewing gum, 1500 mg/day, 25 days, subject 3a
[9] = tablets, 1000 mg/day, 15 days, subject 11a
[10] = tablets, 1200 mg/day, 10 days, subject 10a

CCc1occc(=O)c1O [ethyl maltol, 3-hydroxy-2-ethyl-4-pyrone]
volatility ([1]; especially at elevated temperatures): volatile, especially at elevated temperatures
storage loss ([1]; unwrapped gum, room temperature): storage loss of ethyl maltol due to sublimation at room temperature
Cigarette Consumption per day at end (in words) ([2]; chewing gum, 600 mg/day, 1 day, subject 6a, for following 2 wks.): Reduced to 1/2 pack for following
Change in Smoking Pattern per cig. [2, 4]: Less than 1/2
Cigarette Consumption per day at end [2, 4]: 7 cigarettes per day
Percentage Reduction [2, 4]: 40-50%
Change in Smoking Pattern per cig. ([2]; chewing gum, 700 mg/day, course: 2c 30 days, 3b 8, 5a 14, 7c 40 days): Approx. 1/2; also recorded: Varied; also recorded: Less than 3/4; also recorded: Reduced to 2-3 puffs
Change in Smoking Pattern per cig. [2, 5]: Approx. 1/2; also recorded: Less than 1/2; also recorded: Less than 3/4; also recorded: Reduced to light-up
Percentage Reduction [2, 5]: 70-80% and 41-68% and 75% and 75-80% and 70%
Cigarette Consumption per day at end [2, 6]: 0 cigarettes per day
Percentage Reduction [2, 6]: 100%
Change in Smoking Pattern per cig. ([2]; chewing gum, 1000 mg/day, course: 4b 4 days, 7a 7, 12a 8 days): Less than 1/2; also recorded: Reduced to 3-4 puffs
Cigarette Consumption per day at end [2, 7]: 0 cigarettes per day
Percentage Reduction [2, 7]: 100%
Cigarette Consumption per day at end [2, 8]: 0 cigarettes per day
Percentage Reduction [2, 8]: 100%
Smoking during dose course (in words) ([2]; non-habit smoker 13a, chewing gum, 1000 mg/day, 2 days): Not able to finish cigarette
effectiveness of systemic administration ([2]; tablet form, subjects 10 and 11, retention in the mouth not ruled out): partially effective
Change in Smoking Pattern per cig. [2, 9]: Less than 3/4
Cigarette Consumption per day at end [2, 9]: 17-18 cigarettes per day
Percentage Reduction [2, 9]: 40-43%
Change in Smoking Pattern per cig. [2, 10]: Reduced to 3-4 puffs
Cigarette Consumption per day at end [2, 10]: 10-12 cigarettes per day
Percentage Reduction [2, 10]: 70-75%
tobacco consumption of habitual smokers ([3]; appropriate dosage levels and rates): significantly reduces the tobacco consumption of habitual smokers
onset of reduced cigarette consumption ([3]; day of treatment): about the second or third day of treatment
symptoms of nicotine withdrawal ([3]; treatment over several days): does not appear to be accompanied by the typical symptoms of nicotine withdrawal
acute LD50 (mice): 910 mg per kg
